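Test compounds were applied to cells in 96-well plates for 48 hours at 5 doses. Abbreviation: GI50, concentration required for 50% inhibition of growth.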 The source made the active and inactive calls. No stated cut-off is given here; in the data, active = GI50 up to about 1.1 µM and inactive = higher.
Experiments:
Assay in all cases: DTP human tumour cell line panel, 48 h
HCT-116 = system: HCT-116
SF-295 = system: SF-295
SW-620 = system: SW-620
MOLT-4 = system: MOLT-4
HOP-92 = system: HOP-92
CAKI-1 = system: CAKI-1
SK-MEL-28 = system: SK-MEL-28
RXF 393 = system: RXF 393
SK-MEL-5 = system: SK-MEL-5
PC-3 = system: PC-3
HL-60 = system: HL-60
UACC-62 = system: UACC-62
SN12C = system: SN12C
Hs-578T = system: Hs-578T
NCI/ADR-RES = system: NCI/ADR-RES
HCC 2998 = system: HCC 2998
NCI-H522 = system: NCI-H522
SF-539 = system: SF-539
A498 = system: A498
OVCAR-4 = system: OVCAR-4
A549 = system: A549
T47D = system: T47D
DU-145 = system: DU-145
CCRF-CEM = system: CCRF-CEM
BT-549 = system: BT-549
MDA-MB-231 = system: MDA-MB-231
NCI-H23 = system: NCI-H23
OVCAR-5 = system: OVCAR-5
TK-10 = system: TK-10
UACC-257 = system: UACC-257
OVCAR-3 = system: OVCAR-3
LOX IMVI = system: LOX IMVI
ACHN = system: ACHN
RPMI-8226 = system: RPMI-8226
NCI-H226 = system: NCI-H226
HT-29 = system: HT-29
OVCAR-8 = system: OVCAR-8
UO-31 = system: UO-31
SNB-75 = system: SNB-75
HCT-15 = system: HCT-15
COLO 205 = system: COLO 205
K562 = system: K562
SK-MEL-2 = system: SK-MEL-2
MDA-MB-435 = system: MDA-MB-435
M14 = system: M14
EKVX = system: EKVX
IGROV-1 = system: IGROV-1
786-0 = system: 786-0
SK-OV-3 = system: SK-OV-3
SNB-19 = system: SNB-19
SF-268 = system: SF-268
NCI-H460 = system: NCI-H460
KM12 = system: KM12
MDA-N = system: MDA-N
MCF7 = system: MCF7
HOP-62 = system: HOP-62
SR = system: SR
Malme-3M = system: Malme-3M
U-251 = system: U-251

Q: Which results are given for `C[C@]12OC(=O)[C@]3(O)CC[C@H]4[C@@H](C[C@@H](O)[C@@]5(Cl)CC=CC(=O)[C@]45C)[C@]45OCC6C(=O)O[C@@H]1C[C@@]6(C)[C@H](C4=O)[C@@]32O5` (some centres not stated)?
A: GI50 (HCT-116): 0.656 µM (active); GI50 (SF-295): 3.05 µM (inactive); GI50 (SW-620): 0.494 µM (active); GI50 (MOLT-4): 0.615 µM (active); GI50 (HOP-92): 1.42 µM (inactive); GI50 (CAKI-1): 0.787 µM (active); GI50 (SK-MEL-28): 1.49 µM (inactive); GI50 (RXF 393): 0.283 µM (active); GI50 (SK-MEL-5): 1.56 µM (inactive); GI50 (PC-3): 2.3 µM (inactive); GI50 (HL-60): 0.356 µM (active); GI50 (UACC-62): 0.879 µM (active); GI50 (SN12C): 1.86 µM (inactive); GI50 (Hs-578T): 6.44 µM (inactive); GI50 (NCI/ADR-RES): 2.6 µM (inactive); GI50 (HCC 2998): 0.0946 µM (active); GI50 (NCI-H522): 0.16 µM (active); GI50 (SF-539): 0.759 µM (active); GI50 (A498): 1.37 µM (inactive); GI50 (OVCAR-4): 3.78 µM (inactive); GI50 (A549): 3.37 µM (inactive); GI50 (T47D): 1.82 µM (inactive); GI50 (DU-145): 3.82 µM (inactive); GI50 (CCRF-CEM): 0.22 µM (active); GI50 (BT-549): 0.586 µM (active); GI50 (MDA-MB-231): 3.02 µM (inactive); GI50 (NCI-H23): 0.542 µM (active); GI50 (OVCAR-5): 1.4 µM (inactive); GI50 (TK-10): 1.6 µM (inactive); GI50 (UACC-257): 2.01 µM (inactive); GI50 (OVCAR-3): 1.5 µM (inactive); GI50 (LOX IMVI): 0.951 µM (active); GI50 (ACHN): 1.05 µM (active); GI50 (RPMI-8226): 0.596 µM (active); GI50 (NCI-H226): 1.91 µM (inactive); GI50 (HT-29): 1.55 µM (inactive); GI50 (OVCAR-8): 1.41 µM (inactive); GI50 (UO-31): 1.23 µM (inactive); GI50 (SNB-75): 9.31 µM (inactive); GI50 (HCT-15): 1.46 µM; GI50 (COLO 205): 0.867 µM (active); GI50 (K562): 0.469 µM (active); GI50 (SK-MEL-2): 1.17 µM (inactive); GI50 (MDA-MB-435): 2 µM (inactive); GI50 (M14): 1.13 µM (inactive); GI50 (EKVX): 1.24 µM (inactive); GI50 (IGROV-1): 1 µM (active); GI50 (786-0): 0.617 µM (active); GI50 (SK-OV-3): 3.5 µM (inactive); GI50 (SNB-19): 5.73 µM (inactive); GI50 (SF-268): 0.767 µM (active); GI50 (NCI-H460): 1.89 µM (inactive); GI50 (KM12): 2.15 µM (inactive); GI50 (MDA-N): 1.16 µM (inactive); GI50 (MCF7): 0.774 µM (active); GI50 (HOP-62): 2.78 µM (inactive); GI50 (SR): 0.811 µM (active); GI50 (Malme-3M): 1.3 µM (inactive); GI50 (U-251): 1.5 µM (inactive)

Q: Which results are given for `Clc1ccc(Nc2nc(Cl)c3nc[nH]c3n2)cc1Cl`?
A: GI50 (HCT-116): 29.5 µM (inactive); GI50 (SF-295): 23.7 µM (inactive); GI50 (SW-620): 38 µM (inactive); GI50 (MOLT-4): 24 µM (inactive); GI50 (HOP-92): 23.4 µM (inactive); GI50 (CAKI-1): 3.29 µM (inactive); GI50 (RXF 393): 21 µM (inactive); GI50 (SK-MEL-5): 20.1 µM (inactive); GI50 (PC-3): 14.7 µM (inactive); GI50 (HL-60): 18.2 µM (inactive); GI50 (UACC-62): 33.6 µM (inactive); GI50 (SN12C): 43.8 µM (inactive); GI50 (Hs-578T): 22.1 µM (inactive); GI50 (NCI/ADR-RES): 35.6 µM (inactive); GI50 (HCC 2998): 16.9 µM (inactive); GI50 (NCI-H522): 18.7 µM (inactive); GI50 (SF-539): > 10 µM (inactive); GI50 (A498): 18.4 µM (inactive); GI50 (OVCAR-4): 52.7 µM (inactive); GI50 (A549): 30.1 µM (inactive); GI50 (T47D): 14.2 µM (inactive); GI50 (DU-145): 28.5 µM (inactive); GI50 (CCRF-CEM): 18.7 µM (inactive); GI50 (BT-549): 15.6 µM (inactive); GI50 (MDA-MB-231): 21.1 µM (inactive); GI50 (NCI-H23): 25.4 µM (inactive); GI50 (OVCAR-5): 48.8 µM (inactive); GI50 (TK-10): 32.4 µM (inactive); GI50 (UACC-257): 31.8 µM (inactive); GI50 (OVCAR-3): 19.1 µM (inactive); GI50 (LOX IMVI): 13.4 µM (inactive); GI50 (ACHN): 24.9 µM (inactive); GI50 (RPMI-8226): 29 µM (inactive); GI50 (NCI-H226): 38.4 µM (inactive); GI50 (HT-29): 18.2 µM (inactive); GI50 (OVCAR-8): 35.4 µM (inactive); GI50 (UO-31): 26.9 µM (inactive); GI50 (SNB-75): 18.8 µM (inactive); GI50 (HCT-15): 21 µM; GI50 (COLO 205): 18.6 µM (inactive); GI50 (K562): 37.2 µM (inactive); GI50 (SK-MEL-2): 21.8 µM (inactive); GI50 (MDA-MB-435): 26.9 µM (inactive); GI50 (M14): 36.7 µM (inactive); GI50 (EKVX): 1.97 µM (inactive); GI50 (IGROV-1): 22.2 µM (inactive); GI50 (786-0): 15.8 µM (inactive); GI50 (SK-OV-3): 33.2 µM (inactive); GI50 (SNB-19): 37.2 µM (inactive); GI50 (SF-268): 22.1 µM (inactive); GI50 (NCI-H460): 14.5 µM (inactive); GI50 (KM12): 18.1 µM (inactive); GI50 (MDA-N): 39.8 µM (inactive); GI50 (MCF7): 30.5 µM (inactive); GI50 (HOP-62): 15.9 µM (inactive); GI50 (SR): 19.2 µM (inactive); GI50 (Malme-3M): 32.3 µM (inactive); GI50 (U-251): 29.1 µM (inactive)
